This is an account of results in patent publication US7002015B2, “3-Thia-4-arylquinolin-2-one derivatives as smooth muscle relaxants” (Bristol-Myers Squibb Company, priority 2003, dated 2006).

The structures appear in SMILES notation.

Holding throughout (assay type): cell-based
In assay [1] the test system is cloned mammalian (mSlo or hSlo) BK. In words: Assay for BK channel openers: two-electrode voltage clamp of BK-mediated outward current in Xenopus oocytes. The following applies: percent of control IBTX-sensitive current at +140 mV; 20 μM (or as otherwise indicated); 5–10 oocytes. The method, then:
The ability of the compounds of the invention to open BK channels and increase whole-cell outward (K^+) BK-mediated currents was assessed under voltage-clamp conditions by determining their ability to increase cloned mammalian (mSlo or hSlo) BK-mediated outward current heterologously expressed in Xenopus oocytes [Butler, A., et al., Science 1993, 261, 221–224; Dworetzky, S. I., et al., Mol. Brain Res. 1994, 27, 189–193; Gribkoff, V. K., et al., Mol. Pharmacol. 1996, 50, 206–217]. The two BK constructs employed represent nearly structurally identical homologous proteins, and have proven to be pharmacologically indistinguishable in our tests. To isolate BK current from native (background, non-BK) current, the specific and potent BK channel-blocking toxin iberiotoxin (IBTX) [Galvez, A., et al., J. Biol. Chem. 1990, 265, 11083–11090] was employed at a supramaximal concentration, e.g., 50–100 nanomolar (“nM”). The relative contribution of BK channel-mediated current to total outward current was determined by subtraction of the current remaining in the presence of IBTX (non-BK current) from the current profiles obtained in all other experimental conditions (control, drug, and wash) [Gribkoff, V. K. et al., Mol. Pharmacol. 1996, 50, 206–217]. […] All compounds were tested in 5–10 oocytes and are reported at the indicated concentration of 20 micromolar (“μM”) (or as otherwise indicated); the effect of the selected compounds of the invention on BK current was expressed as the percent of control IBTX-sensitive current at a single transmembrane voltage (+140 mV) and is listed in Table 1. Recordings were accomplished using standard two-electrode voltage clamp techniques [Stuhmer, W., et al., Methods in Enzymology, 1992, 207, 319–339]; voltage-clamp protocols consisted of 500–750 milliseconds (“ms”) duration step depolarizations, from a holding potential of −60 mV, to a final voltage up to +140 mV in 20 mV steps. The experimental media (modified Barth's solution) consisted of millimolar (“mM”): NaCl (88), NaHCO3 (2.4), KCl (1.0), HEPES (10), MgSO4 (0.82), Ca(NO3)2 (0.33), CaCl2 (0.41); pH 7.5.
On the technique in general: In two-electrode clamp one electrode senses voltage and the other passes current.

Assay [2] concerns rabbit corpus cavernosum tissue. In words: Rabbit corpus cavernosum strips: relaxation of phenylephrine-induced force. Conditions: Oryctolagus cuniculus, inhibition of phenylephrine (3 μM)-induced force as compared to vehicle control, read-out: % Inhibition of force (RCC strips). As to the method:
The ability of the compounds of the invention to relax rabbit corpus cavernosum tissue as a model for the treatment of erectile dysfunction is described as follows. New Zealand white rabbits (3.4–3.7 kg) were euthanized by sodium pentobarbital (100 mg/kg) overdose. The penis from each animal was rapidly removed and immersed in a cold oxygenated modified Krebs Henseleit bicarbonate buffer. The penis' outer tunica was removed and the corpus cavernosum smooth muscle obtained and cut into strips approximately 3–5 mm long. The strips were suspended in tissue baths containing physiological salt solution (see above), and allowed to equilibrate for at least one hour under resting tension of 1.0 gram. Isometric force was measured as described above. Tissue strips were stimulated with the α-agonist phenylephrine (3 μM) and allowed to reach a steady level of force prior to the addition of test compounds. The results are expressed as the percentage inhibition of phenylephrine-induced force as compared to vehicle control.

The subject of assay [3] is rat small intestine tissue. In words: Rat small intestine (ileum) segments: inhibition of nifedipine-sensitive force. Further details: concentration or dose not given beside the values. The following applies: integral of nifedipine-sensitive force pre- and 30 min post-compound. The text has this: The ability of the compounds of the invention to relax rat small intestine tissue as a model for the treatment of irritable bowel syndrome is described as follows. Male rats (Harlan, Sprague Dawley, 250–350 g) were sacrificed by decapitation. A portion of small intestine (ileum) was removed and the attached connective tissues and intestinal contents removed. The ileum was cut into segments of ≦1 cm in length. The segments were mounted longitudinally between fixed hooks in organ baths containing warm (37° C.) physiological salt solution (composition in mM: NaCl 118.4, KCl 4.7, KH2PO4 1.2, MgSO4 1.2, CaCl2 1.8, Glucose 10.1, NaHCO3 25; gassed with 95% O2/5% CO2, pH 7.4). A stable tension of ˜1.5 g was maintained in the tissue segments during the equilibration period of 45 minutes. Changes in muscle tension were measured with isometric force transducers (Grass, FT-03C) and recorded using AcqKnowledge data acquisition system (AcqKnowledge for MP100WS, Biopac Systems Inc., Goleta, Calif.). Compound or vehicle was added in the baths for 30 minutes. “Zero” active force was established at the end of the experiment using nifedipine (20 μM). The effects of compounds or vehicle on force was determined by measuring the integral of nifedipine-sensitive force (including resting tone and spontaneous contractions) pre- and 30 min post-compound (or vehicle) addition. Results are expressed as the percentage inhibition of force. DMSO vehicle inhibited force (integral) by −0.6±3.0% (n=25).

The inhibition is the relative decrease from the control value, in per cent. For the molecule `O=C(CCN1CCCC1)CSc1c(-c2cc(Cl)ccc2O)c2cc(C(F)(F)F)ccc2[nH]c1=O` [Example 2, 4-(5-Chloro-2-hydroxy-phenyl)-3-(2-oxo-4-pyrrolidin-1-yl-butylsulfanyl)-6-trifluoromethyl-1H-quinolin-2-one], the “% MaxiK opening*” value in assay [1] stood at 335%. In addition, the inhibition in assay [2] stood at 30%.

Consider `CN1CCN(CCC(=O)CSc2c(-c3cc(Cl)ccc3O)c3cc(C(F)(F)F)ccc3[nH]c2=O)CC1` [Example 3, 4-(5-Chloro-2-hydroxy-phenyl)-3-[4-(4-methyl-piperazin-1-yl)-2-oxo-butylsulfanyl]-6-trifluoromethyl-1H-quinolin-2-one], for which, in assay [1], the “% MaxiK opening*” value is on record as 550%.

For the molecule `CN(C)C1CCN(C(=O)CSc2c(-c3cc(Cl)ccc3O)c3cc(C(F)(F)F)ccc3[nH]c2=O)CC1` [Example 5, 4-(5-Chloro-2-hydroxy-phenyl)-3-[2-(4-dimethylamino-piperidin-1-yl)-2-oxo-ethylsulfanyl]-6-trifluoromethyl-1H-quinolin-2-one], the “% Inhibition of force (RSI strips)” value in assay [3] was 58.5%. In assay [1], the “% MaxiK opening*” value is listed as 286%. Besides, in assay [2], the inhibition was found to be 34.5%.

Take `O=C(CCN1CCCCC1)CSc1c(-c2cc(Cl)ccc2O)c2cc(C(F)(F)F)ccc2[nH]c1=O` [Example 7, 4-(5-Chloro-2-hydroxyphenyl)-3-[[2-oxo-4-(1-piperidinyl)butyl]thio]-6(trifluoromethyl)-2(1H)-quinolinone]: in assay [3], the “% Inhibition of force (RSI strips)” value was 29%. Further, the “% MaxiK opening*” value in assay [1] is 199%.

For the molecule `O=C(CCN1CCN(CCO)CC1)CSc1c(-c2cc(Cl)ccc2O)c2cc(C(F)(F)F)ccc2[nH]c1=O` [Example 21, 4-(5-Chloro-2-hydroxyphenyl)-3-[[4-[4-(2-hydroxyethyl)-1-piperazinyl]-2-oxobutyl]thio]-6-(trifluoromethyl)-2(1H)-quinolinone], the “% MaxiK opening*” value in assay [1] was determined as 241%.

On to `O=C(CCN1CCC(O)CC1)CSc1c(-c2cc(Cl)ccc2O)c2cc(C(F)(F)F)ccc2[nH]c1=O` [Example 30, 4-(5-Chloro-2-hydroxyphenyl)-3-[[4-(4-hydroxy-1-piperidinyl)-2-oxobutyl]thio]-6-(trifluoromethyl)-2(1H)-quinolinone], for which, in assay [1], the “% MaxiK opening*” value is on record as 235%.

On to `CN(C)CCCN(C)CCC(=O)CSc1c(-c2cc(Cl)ccc2O)c2cc(C(F)(F)F)ccc2[nH]c1=O` [Example 35, 4-(5-Chloro-2-hydroxyphenyl)-3-[[4-[[3-(dimethylamino)propyl]methylamino]-2-oxobutyl]thio]-6-(trifluoromethyl)-2(1H)quinolinone], for which the “% MaxiK opening*” value in assay [1] is recorded as 178%.

For the molecule `CC(=O)N1CCN(CCCC(=O)CSc2c(-c3cc(Cl)ccc3O)c3cc(C(F)(F)F)ccc3[nH]c2=O)CC1` [Example 63, 1-Acetyl-4-[5-[[4-(5-chloro-2-hydroxyphenyl)-1,2-dihydro-2-oxo-6-(trifluoromethyl)-3-quinolinyl]thio]-4-oxopentyl]piperazine], the “% MaxiK opening*” value in assay [1] is reported as 284%.

For the molecule `CC1CCCN(CCCC(=O)CSc2c(-c3cc(Cl)ccc3O)c3cc(C(F)(F)F)ccc3[nH]c2=O)C1` (stereo not drawn) [Example 65, 4-(5-Chloro-2-hydroxyphenyl)-3-[[5-(3-methyl-1-piperidinyl)-2-oxopentyl]thio]-6-(trifluoromethyl)-2(1H)-quinolinone], the “% MaxiK opening*” value in assay [1] was 271%.

With `CC1CCN(CCCC(=O)CSc2c(-c3cc(Cl)ccc3O)c3cc(C(F)(F)F)ccc3[nH]c2=O)CC1` [Example 66, 4-(5-Chloro-2-hydroxyphenyl)-3-[[5-(4-methyl-1-piperidinyl)-2-oxopentyl]thio]-6-(trifluoromethyl)-2(1H)-quinolinone], the “% MaxiK opening*” value in assay [1] is reported as 213%.

On to `CN1CCC(N(C)CCCC(=O)CSc2c(-c3cc(Cl)ccc3O)c3cc(C(F)(F)F)ccc3[nH]c2=O)C1` (stereo not drawn) [Example 68, 4-(5-chloro-2-hydroxyphenyl)-3-[[5-[methyl(1-methyl-3-pyrrolidinyl)amino]-2-oxopentyl]thio]-6-(trifluoromethyl)-2(1H)-quinolinone], for which the “% MaxiK opening*” value in assay [1] came out at 226%.

For `O=C(CCCN1CCC(N2CCCCC2)CC1)CSc1c(-c2cc(Cl)ccc2O)c2cc(C(F)(F)F)ccc2[nH]c1=O` [Example 72, 3-[(5-[1,4′-Bipiperidin]-1′-yl-2-oxopentyl)thio]-4-(5-chloro-2-hydroxyphenyl)-6-(trifluoromethyl)-2(1H)-quinolinone], in assay [1], the “% MaxiK opening*” value came out at 298%.

As to `CN1CCN(C(=O)CSc2c(-c3cc(Cl)ccc3O)c3cc(C(F)(F)F)ccc3[nH]c2=O)CC1` [Example 84, 1-[[[4-(5-Chloro-2-hydroxyphenyl)-1,2-dihydro-2-oxo-6-(trifluoromethyl)-3-quinolinyl]thio]acetyl]-4-methylpiperazine], the “% MaxiK opening*” value in assay [1] was 422%. For the same molecule, in assay [2], the inhibition was found to be 14.4%.

As for `O=C(CSc1c(-c2cc(Cl)ccc2O)c2cc(C(F)(F)F)ccc2[nH]c1=O)N1CCN(CCOCCO)CC1` [Example 98, 2-[2-[4-[[[4-(5-Chloro-2-hydroxyphenyl)-1,2-dihydro-2-oxo-6-(trifluoromethyl)-3-quinolinyl]thio]acetyl]-1-piperazinyl]ethoxy]ethanol], in assay [3], the “% Inhibition of force (RSI strips)” value amounted to 9%. For the same molecule, the “% MaxiK opening*” value in assay [1] is recorded as 205%. Besides, the inhibition in assay [2] stood at 17%.

In the case of `O=C(CSc1c(-c2cc(Cl)ccc2O)c2cc(C(F)(F)F)ccc2[nH]c1=O)N1CCN(CCO)CC1` [Example 103, 4-[[[4-(5-Chloro-2-hydroxyphenyl)-1,2-dihydro-2-oxo-6-(trifluoromethyl)-3-quinolinyl]thio]acetyl]-1-piperazineethanol], in assay [3], the “% Inhibition of force (RSI strips)” value is reported as 22.5%. Further, in assay [1], the “% MaxiK opening*” value was 151%. In addition, the inhibition in assay [2] came to 22%.

With `NC(=O)C1CCN(C(=O)CSc2c(-c3cc(Cl)ccc3O)c3cc(C(F)(F)F)ccc3[nH]c2=O)CC1` [Example 105, 1-[[[4-(5-Chloro-2-hydroxyphenyl)-1,2-dihydro-2-oxo-6-(trifluoromethyl)-3-quinolinyl]thio]acetyl]-4-piperidinecarboxamide], the “% Inhibition of force (RSI strips)” value in assay [3] worked out at 62%. In assay [1], the “% MaxiK opening*” value is reported as 203%. Further, the inhibition in assay [2] turned out to be 67%.

As for `CCOC(=O)CN1CCN(C(=O)CSc2c(-c3cc(Cl)ccc3O)c3cc(C(F)(F)F)ccc3[nH]c2=O)CC1` [Example 107, 4-[[[4-(5-Chloro-2-hydroxyphenyl)-1,2-dihydro-2-oxo-6-(trifluoromethyl)-3-quinolinyl]thio]acetyl]-1-piperazineacetic acid, ethyl ester], in assay [3], the “% Inhibition of force (RSI strips)” value is 46%. In addition, the “% MaxiK opening*” value in assay [1] was found to be 281%. For the same molecule, the inhibition in assay [2] turned out to be 19%.
